Reference: article PMC4819940 (Cancer Chemotherapy and Pharmacology, 2016)
Like-named read-outs stand apart in the source and are kept apart here.

Assays:
[1] = tested on: Japanese patients with advanced solid malignancies
Protocol: This was a phase 1, open-label, multicenter, dose escalation study. […] All doses were required to be taken in a fasted state (no caloric intake from 2 h before dosing to 1 h after dosing).
All evaluations during the bid dosing regimen were conducted in 21-day assessment cycles. Patients were enrolled to ensure a minimum of three and a maximum of six evaluable patients per cohort. Dose escalation and de-escalation were determined by the number of dose-limiting toxicities (DLTs; defined as any toxicity related to study drug as assessed by the investigator and not attributable to the disease under investigation) in a cohort. […] If one patient in a group of […] evaluable patients experienced a DLT, the cohort was expanded to include six evaluable patients. […] If ≥2 patients in a group of up to six evaluable patients experienced a DLT, irrespective of the number of patients enrolled, the dose was considered not tolerated and recruitment to the cohort and dose escalation was ceased. De-escalation to a lower intermediary dose could be considered in order to better define the MTD.
Based on emerging clinical data from the continuous dosing regimen of this study and data from the Western Study 1 (D3610C00001, NCT01226316), which was running in parallel with the Japanese study, an intermittent dosing regimen was also evaluated in Japanese patients and with a starting dose of 480 mg bid and a 4/3 dosing schedule.
Safety and tolerability were assessed in terms of adverse events (AEs), serious adverse events (SAEs), deaths, laboratory data, vital signs, electrocardiogram (ECG), assessment of glucose metabolism, and physical examination. AEs were graded according to the Common Terminology Criteria for Adverse Events (CTCAE) version 4.0. Any AE occurring after the first dose of study treatment and within 30 days of the last dose of study treatment was included in the AE summaries.

[2] = Plasma pharmacokinetics of AZD5363 after a single dose and multiple doses; format: in vivo, human; details: human, plasma, oral, geometric mean (CV%)
Excerpt: […] area under the plasma concentration–time curve (AUC), maximum plasma (peak) drug concentration (Cmax), time to reach Cmax (tmax), apparent plasma clearance (CL/F), and oral volume of distribution at steady state (Vss/F).

For `NC1(C(=O)N[C@@H](CCO)c2ccc(Cl)cc2)CCN(c2ncnc3[nH]ccc23)CC1` [AZD5363], the “AE with outcome of death: Any” value ([1]; 80 mg bid continuous, n=3) was 0 (0.0) number (%) of patients, the “AE with outcome of death: Any” value ([1]; 240 mg bid continuous, n=7) was 0 (0.0) number (%) of patients and the “AE with outcome of death: Any” value ([1]; 320 mg bid continuous, n=6) was 0 (0.0) number (%) of patients. For the same molecule, the “AE with outcome of death: Any” value ([1]; 360 mg bid intermittent 4/3, n=8) was 0 (0.0) number (%) of patients, the “AE with outcome of death: Any” value ([1]; 400 mg bid continuous, n=5) was 0 (0.0) number (%) of patients and the “AE with outcome of death: Any” value ([1]; 480 mg bid intermittent 4/3, n=6) was 0 (0.0) number (%) of patients. The “AE with outcome of death: Any” value ([1]; 640 mg bid intermittent 2/5, n=6) was 0 (0.0) number (%) of patients, the “AE with outcome of death: Any” value ([1]; Total, n=41) was 0 (0.0) number (%) of patients and the MTD ([1]; either of the intermittent dosing schedules) was “not reached”. The “AEs of CTCAE grade ≥3: Any” value ([1]; human, in vivo) was 26 (63.4) number (%) of patients, the “AEs of CTCAE grade ≥3: Diarrhea” value ([1]; human, in vivo) was 7 (17.1) number (%) of patients and the “AEs of CTCAE grade ≥3: Hyperglycemia” value ([1]; human, in vivo) was 16 (39.0) number (%) of patients. For the same molecule, the “AEs of CTCAE grade ≥3: Lymphocyte count decreased” value ([1]; human, in vivo) was 3 (7.3) number (%) of patients, the “AEs of CTCAE grade ≥3: Neutrophil count decreased” value ([1]; human, in vivo) was 4 (9.8) number (%) of patients and the “AEs: Blood creatinine increased” value ([1]; human, in vivo) was 14 (34.1) number (%) of patients. For the same molecule, the “AEs: Decreased appetite” value ([1]; human, in vivo) was 20 (48.8) number (%) of patients, the “AEs: Diarrhea” value ([1]; human, in vivo) was 32 (78.0) number (%) of patients and the “AEs: Hyperglycemia” value ([1]; human, in vivo) was 28 (68.3) number (%) of patients. The “AEs: Maculopapular rash” value ([1]; human, in vivo) was 23 (56.1) number (%) of patients, the “AEs: Nausea” value ([1]; human, in vivo) was 23 (56.1) number (%) of patients and the “AEs: Proteinuria” value ([1]; human, in vivo) was 16 (39.0) number (%) of patients. The “AEs: Pyrexia” value ([1]; human, in vivo) was 20 (48.8) number (%) of patients, the “AEs: Stomatitis” value ([1]; human, in vivo) was 17 (41.5) number (%) of patients and the “AEs: White blood cell count decreased” value ([1]; human, in vivo) was 13 (31.7) number (%) of patients. For the same molecule, the “Adverse events (AEs): Any” value ([1]; human, in vivo) was 40 (97.6) number (%) of patients, the “SAE: Any” value ([1]; human, in vivo) was 3 (7.3) number (%) of patients and the “patients who experienced an AE of CTCAE grade ≥3” value ([1]; human, in vivo) was 63.4%. For the same molecule, the “patients who experienced at least one AE” value ([1]; human, in vivo) was 97.6%, the “patients with AE diarrhea” value ([1]; human, in vivo) was 78.0% and the “patients with AE hyperglycemia” value ([1]; human, in vivo) was 68.3%. For the same molecule, the “patients with AE maculopapular rash” value ([1]; human, in vivo) was 56.1%, the “patients with AE nausea” value ([1]; human, in vivo) was 56.1% and the “patients with AEs leading to dose interruption” value ([1]; human, in vivo) was 39.0%. The “patients with CTCAE grade ≥3 diarrhea” value ([1]; human, in vivo) was 17.1%, the “patients with CTCAE grade ≥3 hyperglycemia” value ([1]; human, in vivo) was 39.0% and the “patients with a grade ≥3 AE considered to be treatment related” value ([1]; human, in vivo) was 58.5%. The “patients with discontinuation due to an AE” value ([1]; human, in vivo) was 12.2%, the DLTs reported ([1]; in vivo) was “No DLTs” and the “patients who experienced DLTs” value ([1]; in vivo) was “five”. The “patients who experienced an SAE” value ([1]; in vivo) was “Three”, the “deaths related to AEs” value ([1]; overall, all cohorts) was “no deaths” and the AUC ([2]; 80 mg, multiple doses, 80 mg bid continuous, n=3, read-out: AUCss) was 1520 ng·h/mL. It also gave an AUC ([2]; 80 mg, single dose, 80 mg bid continuous cohort, n=3, read-out: AUC) of 1260 ng·h/mL, an AUC ([2]; 240 mg, multiple doses, 240 mg bid continuous, n=7, read-out: AUCss) of 4840 ng·h/mL and an AUC ([2]; 240 mg, single dose, 240 mg bid continuous cohort, n=7, read-out: AUC) of 3290 ng·h/mL. The AUC ([2]; 320 mg, multiple doses, 320 mg bid continuous, n=4, read-out: AUCss) was 5770 ng·h/mL, the AUC ([2]; 320 mg, single dose, 320 mg bid continuous cohort, n=6, read-out: AUC) was 7110 ng·h/mL and the AUC ([2]; 360 mg, multiple doses, 360 mg bid intermittent 4/3, n=7, read-out: AUCss) was 5870 ng·h/mL. For the same molecule, the AUC ([2]; 360 mg, single dose, 360 mg bid intermittent 4/3 cohort, n=8, read-out: AUC) was 4770 ng·h/mL, the AUC ([2]; 400 mg, multiple doses, 400 mg bid continuous, n=4, read-out: AUCss) was 9670 ng·h/mL and the AUC ([2]; 400 mg, single dose, 400 mg bid continuous cohort, n=5, read-out: AUC) was 4670 ng·h/mL. The AUC ([2]; 480 mg, multiple doses, 480 mg bid intermittent 4/3, n=6, read-out: AUCss) was 10900 ng·h/mL, the AUC ([2]; 480 mg, single dose, 480 mg bid intermittent 4/3 cohort, n=6, read-out: AUC) was 7210 ng·h/mL and the AUC ([2]; 640 mg, multiple doses, 640 mg bid intermittent 2/5, n=6, read-out: AUCss) was 14200 ng·h/mL. For the same molecule, the AUC ([2]; 640 mg, single dose, 640 mg bid intermittent 2/5 cohort, n=6, read-out: AUC) was 11400 ng·h/mL.
